Measurements published in article PMC4043309 (Journal of medicinal chemistry, 2013).

Experiments:
[1] = Stabilities; type: physicochemical; conditions: for stability: isomerization on storage: methanol or methanol–chloroform mixture (v/v 1:1) as solvent
[2] = molecular target: T1, recombinant human estrogen receptor-α (ER-α) (Homo sapiens, UniProt P03372); type: binding; conditions: at 100 μM compound
T1 sequence (P03372 1-595): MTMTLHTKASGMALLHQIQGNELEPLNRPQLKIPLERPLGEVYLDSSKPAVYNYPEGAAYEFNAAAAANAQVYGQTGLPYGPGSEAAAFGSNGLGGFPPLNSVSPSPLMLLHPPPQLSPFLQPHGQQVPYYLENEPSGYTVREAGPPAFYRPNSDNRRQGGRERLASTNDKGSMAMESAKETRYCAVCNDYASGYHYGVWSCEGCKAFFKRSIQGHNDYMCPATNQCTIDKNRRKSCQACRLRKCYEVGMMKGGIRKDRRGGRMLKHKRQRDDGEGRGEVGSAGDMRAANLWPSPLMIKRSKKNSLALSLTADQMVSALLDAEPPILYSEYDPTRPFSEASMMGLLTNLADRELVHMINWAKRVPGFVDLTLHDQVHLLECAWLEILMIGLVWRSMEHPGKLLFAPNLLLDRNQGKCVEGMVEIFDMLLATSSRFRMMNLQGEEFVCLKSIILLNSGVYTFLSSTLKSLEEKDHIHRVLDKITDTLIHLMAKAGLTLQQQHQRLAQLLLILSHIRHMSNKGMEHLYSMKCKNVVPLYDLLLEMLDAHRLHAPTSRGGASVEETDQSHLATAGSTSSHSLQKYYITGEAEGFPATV

[3] = molecular target: recombinant human estrogen receptor-β (ER-β) (Homo sapiens, UniProt Q92731); type: binding; conditions: at 100 μM compound
[4] = molecular target: T2, recombinant human aromatase (CYP19) (Homo sapiens, UniProt P11511); assay: Inhibition of recombinant human aromatase
T2 sequence (P11511 1-503): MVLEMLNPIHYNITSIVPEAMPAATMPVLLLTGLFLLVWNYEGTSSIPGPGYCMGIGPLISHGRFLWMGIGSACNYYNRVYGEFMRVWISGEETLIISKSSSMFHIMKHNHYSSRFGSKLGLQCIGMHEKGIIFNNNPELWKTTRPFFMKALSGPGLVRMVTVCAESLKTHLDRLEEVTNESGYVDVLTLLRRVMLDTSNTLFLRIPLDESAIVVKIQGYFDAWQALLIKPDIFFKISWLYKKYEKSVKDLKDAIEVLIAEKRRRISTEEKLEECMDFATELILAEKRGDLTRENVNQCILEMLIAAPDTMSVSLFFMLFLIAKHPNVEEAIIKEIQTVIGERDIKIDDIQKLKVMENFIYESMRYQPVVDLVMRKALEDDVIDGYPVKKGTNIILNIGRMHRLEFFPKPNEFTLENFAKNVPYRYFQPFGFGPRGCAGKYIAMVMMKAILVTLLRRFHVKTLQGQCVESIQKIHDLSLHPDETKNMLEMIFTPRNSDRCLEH

Sequence of recombinant human estrogen receptor-β (ER-β) (Q92731 whole entry): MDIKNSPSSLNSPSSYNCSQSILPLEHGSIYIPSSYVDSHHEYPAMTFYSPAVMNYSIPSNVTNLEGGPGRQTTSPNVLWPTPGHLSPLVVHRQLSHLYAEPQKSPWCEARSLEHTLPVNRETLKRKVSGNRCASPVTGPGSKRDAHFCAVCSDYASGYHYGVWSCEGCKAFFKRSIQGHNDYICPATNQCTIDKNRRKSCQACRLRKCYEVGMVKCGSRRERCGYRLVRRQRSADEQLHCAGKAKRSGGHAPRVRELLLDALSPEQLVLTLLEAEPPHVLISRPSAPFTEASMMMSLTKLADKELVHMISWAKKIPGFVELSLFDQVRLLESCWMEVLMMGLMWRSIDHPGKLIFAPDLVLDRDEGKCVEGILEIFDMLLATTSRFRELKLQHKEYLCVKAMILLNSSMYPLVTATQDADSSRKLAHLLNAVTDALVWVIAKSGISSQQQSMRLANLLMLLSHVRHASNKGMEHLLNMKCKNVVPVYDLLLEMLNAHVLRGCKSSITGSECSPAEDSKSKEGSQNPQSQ

stability: isomerization to mixed (E,Z)-norendoxifen ([1]; chloroform (or dichloromethane) as the single solvent)	ER-α percent competition [2] [% competition]	ER-β percent competition [3] [% competition]	fold less potent against aromatase than mixed (E,Z)-norendoxifen [4] [fold]	Compound	stability: isomerization on storage [1]
				CC/C(=C(/c1ccc(O)cc1)c1ccc(OCCN)cc1)c1ccccc1 [E-4, (E)-4-(1-(4-(2-Aminoethoxy)phenyl)-2-phenylbut-1-enyl)phenol]	stored for at least a few weeks without substantial isomerization
fast isomerization				CC/C(=C(\c1ccc(O)cc1)c1ccc(OCCN)cc1)c1ccccc1 [Z-4, (Z)-4-(1-(4-(2-Aminoethoxy)phenyl)-2-phenylbut-1-enyl)phenol]	stored for at least a few weeks without substantial isomerization
	57	71	90	CC/C(=C(\c1ccc(O)cc1)c1ccc(OCC(N)=O)cc1)c1ccccc1 [compound 3, (E,Z)-2-(4-(1-(4-Hydroxyphenyl)-2-phenylbut-1-enyl)phenoxy)-acetamide]	
	68	68		CC/C(=C(/c1ccc(O)cc1)c1ccc(OC(=O)C(C)(C)C)cc1)c1ccccc1 [compound 6, (E)-4-(1-(4-Hydroxyphenyl)-2-phenylbut-1-enyl)phenyl Pivalate]	
	80			CCC(=C(c1ccc(O)cc1)c1ccc(O)cc1)c1ccccc1 [compound 2, 4,4′-(2-Phenylbut-1-ene-1,1-diyl)diphenol]	
	56	45		CC/C(=C(/c1ccc(OCC(N)=O)cc1)c1ccc(OC(=O)C(C)(C)C)cc1)c1ccccc1 [compound 7, (E)-4-(1-(4-(2-Amino-2-oxoethoxy)phenyl)-2-phenylbut-1-enyl)-phenyl Pivalate]	
